The test system of the assay is hNCC(V231M). Description: 125I- uptake assay, hNCC(V231M) variant. In kind it is cell-based, human. Conditions: V231M polymorphism. On the procedure:
HEK293S cell lines, cultured in 293 Freestyle medium (Life Technologies; plus 10% fetal bovine serum), stably expressing hNCC and its variants were generated following published protocols. Cells were transfected using Lipofectamine 3000 (Invitrogen) with a pSBbi-RP-based plasmid containing hNCC or its variants and the SB100X vector. Puromycin (2 μg/mL; Gemini Bio-Products) was used for selection of stable cell lines.
To prepare for the uptake experiment, cells were plated at 0.5 × 10^6 cells/well in 24-well plates one day in advance. To activate NCC, cells were treated with a chloride-free hypotonic solution composed of 67.5 mM sodium-, 2.5 mM potassium-, 0.25 mM magnesium-, and 0.25 mM calcium-gluconate, as well as 7.5 mM HEPES pH 7.4 (buffered using Tris) at 37 °C for 10 min[72]. After the activation step, the experiments were carried out at room temperature. Ten minutes before the start of ^125I^− uptake, 70 μM Bumetanide (Thermo Scientific Chemicals) and 100 μM 4,4′-diisothiocyanatostilbene-2,2′-disulfonic acid (DIDS; Sigma) were added to suppress background iodide uptake activity. Indicated thiazide diuretics were also added to the indicated concentrations 10 min before the start of ^125I^− uptake. The original buffer was switched to an uptake buffer composed of 135 mM Na-gluconate, 5 mM K-gluconate, 1 mM Mg-gluconate, 1 mM Ca-gluconate, 70 μM bumetanide, 100 μM DIDS, 1 mM NaI, 0.25 μCi/ml Na^125I (American Radiolabeled Chemicals, Inc.), and 15 mM HEPES pH 7.4 (buffered using Tris), in the presence or absence of thiazide diuretics to initiate ^125I^− uptake. The ^125I^− uptake process lasted 1 h and was stopped by two rapid washes using ice-cold 110 mM MgCl2. Cells lysed using 1% sodium dodecyl sulfate (SDS) were analyzed by scintillation counting.
To calculate the fold change of the half-maximal inhibitory concentration (IC50) between hNCC(WT) and different hNCC variants, individual dose-response curves were normalized first using the smallest mean and the value of the lowest concentration as 0% and 100%, respectively. The normalized data were then fitted using the “EC50 shift” nonlinear regression in GraphPad Prism 10 with the shared EC50Control assigned to be the IC50 of hNCC(WT). The following constraints were used in the EC50 shift analysis. The EC50Control was set to be shared across all curves under analysis and constrained to be greater than 0. The EC50Ratio was constrained to be greater than 0. The bottom, top, and HillSlope were constrained to be 0, 100, and −1, respectively. For Fig. 1f, g and Supplementary Fig. 2d, GraphPad Prism 10 was used to perform curve fitting and IC50 calculation for normalized data using y = 100/(1 + (x/IC50)).

With `NS(=O)(=O)c1cc2c(cc1Cl)NCNS2(=O)=O` [hydrochlorothiazide], the “sensitivity relative to hNCC(WT) (fold lower)” value is given as “nearly as sensitive as the wild-type”.
